This note sets out measurements from US20100104546A1, “MODULATORS OF ANTIGEN-DEPENDENT T CELL PROLIFERATION” (CHILDREN, YOUTH AND WOMEN'S HEALTH SERVICE, priority 2007, published 2010).

The subject of this test is splenocytes. The test is described as follows: Ex-vivo antigen (SRBC)-dependent splenocyte proliferation after administration to SRBC-immunized mice (thymidine incorporation). It is filed as in vivo, Balb/c mice. The settings on record: ip in mouse serum, between 10-80 mg/kg. On the procedure:
Mice were immunized with SRBC for 5 days. β-oxa-21:3n-3 was delivered in DMSO and injected intraperitoneally at the indicated doses. After 2 h spleens were removed and single cell suspensions were prepared. The splenocytes were cultured for 3 days in the presence (□), or absence (▪) of SRBC. Thymidine incorporation for final 16 hours of culture was determined. The data is expressed as mean±SEM of 3 separate experiments each in triplicate.
Mice were immunized with SRBC for 5 days. Then β-oxa-21:3n-3 dissolved in syngeneic mouse serum and injected intraperitoneally (A), intravenously (B) or gavaged/orally (C) at the indicated concentrations. After 2 h spleens were removed, single cell suspensions prepared and the splenocytes cultured for 3 days in the presence (▪), or absence (□) of SRBC. Thymidine incorporation for final 16 hours of culture was determined. The data is presented as the mean±SEM of 3 separate experiments separate experiments, each in quintuplets.
Mice were immunized with SRBC. After 5 days they were given β-thia-21:3n-3 at the indicated doses i.p. After 2 hours the spleens were removed and processed into single cell suppressions. These were then cultured in the presence (□), or absence of (▪) of SRBC to assess the proliferation. The results are expressed as mean±SEM of 3 experiments. (B) Effect of β-oxa-21:3n-3 on tetanus toxoid (TT)-induced ex vivo lymphocyte responses. Mice were immunized with TT subcutaneously and after 7 days were given β-oxa-21:3n-3 in mouse serum, intraperitoneally. Two hours later the spleen removed, single cell suspension prepared and examined for lymphoproliferation responses to TT in 5 day cultures. The results are expressed as mean±SEM of 3 experiments.
6-7 weeks old Balb/c mice were injected subcutaneously with 100 μl of 10% sheep red blood cells (IMVS, Inc., Adelaide, Australia) After 5 days 100 ul of β-oxa-21:3n-3 at indicated amounts were injected intraperitoneally, intravenously or gavaged orally. In another experimental set up mice were given β-tha-21:3n-3 i.p. In a third approach mice were infected subcutaneously with 100 μl of Tetanus Toxoid (2,500 Lf/ml). Then 7 days later were given β-oxa-21:3n-3. At indicated time points mice were sacrificed and spleens were removed. Single cell suspensions were prepared and white blood cells (WBC) were enriched by passing through Ficoll-Paque Plus (GE Healthcare). Cells were washed with RPMI-1640 containing 10% fetal bovine serum, 10 mM Hepes, antibiotics and glutamine (RPMI-10) and counted using an automated Cell-Dyne 3500R (Abbott, Inc. MA) instrument. Cells were viable (>98%) as judged by trypan blue exclusion. (β-oxa-21:3n-3)- or vehicle-treated mouse samples (200,000/well) were mixed either with SRBC (600,000/well) with 100 μl of Tetanus toxoid (50 Lf/ml) or phytohaemaglutinin (PHA) (2 μg/ml) or with PHA plus phorbol myristate acetate (PMA) (10 ng/ml) or with PMA plus calcium ionophore A23187 ([…]). Cells were cultured in 96 well U bottom plates (Nunc, Inc. Denmark) for 3 days (except for TT −5 days) at 37° C. under humidified air containing 5% CO2. At some instances 50 μl of supernatants were transferred to a new plate and frozen immediately at −70° C. to be used for cytokine measurements. Thymidine (50 μl, 1 μCi/well) was added at final 16 hours of culture. Cells were harvested and thymidine incorporation was determined using a beta scintillation counter.
A general note: Uptake of a labelled nucleoside into DNA is a usual measure of proliferation.

Turning to β-thia-21:3n-3, the “lymphoproliferative response to SRBC” value is on record as “inhibition of the lymphoproliferative response in a dose dependent manner”.
